Results taken from patent publication EP4623908A1, “USE OF (-)-EPIGALLOCATECHIN GALLATE COMPOUND” (CF Pharmtech, Inc., priority 2022, dated 2024).

Tested on: Pulmonary Fibrosis Induced by Bleomycin in Rats
Test: Bleomycin-induced pulmonary fibrosis model in rats (Example 5)
Format: in vivo, SD rats
Conditions: for Hydroxyproline Content: rat lung tissue, Mean ±SEM
Experimental: This study aims to compare the effects of different administration methods, including oral gavage of EGCG, tracheal nebulization of pirfenidone solution, and tracheal nebulization of EGCG at different doses, on the collagen content in lung tissues and pathological observations of rats with bleomycin-induced pulmonary fibrosis. The therapeutic effect of inhaled EGCG on rat pulmonary fibrosis was evaluated.
The solvents for the EGCG nebulization solution, modeling agents, and their solvents are as described in Example 4. The positive control drug is pirfenidone (purity 99%, pharmaceutical grade), with the solvent components consisting of NaCl and citric acid, forming a clear liquid.
SPF-grade SD rats, 6-9 weeks old with a weight of 200-300g, totaling 88 rats, were randomly divided into the following groups: • Sham operation group (normal control) (8 rats) • Pulmonary fibrosis model control group (10 rats) • Oral gavage EGCG group 1 (10 rats) • Oral gavage EGCG group 2 (10 rats) • Tracheal Nebulization EGCG solution groups 1-4 (10 rats per group, total 40 rats) • Tracheal Nebulization pirfenidone solution group (10 rats)
On D1, the normal control group was administered solvent 2 (saline injection solution, 1 mL/kg) via tracheal nebulization, while all other groups were administered bleomycin (2.5 mg/kg, 1 mL/kg) via tracheal nebulization twice a day (morning and afternoon) to establish the model. On D8, the body weights of the animals were recorded. From D10 to D28, the normal control and pulmonary fibrosis model groups were treated with solvent 1 via tracheal nebulization, while the remaining groups were administered EGCG or pirfenidone once daily at the following doses and administration methods: • Oral gavage EGCG group 1 and 2: 30 mg/kg, 60 mg/kg • Tracheal Nebulization EGCG group 1-4: 0.05 mg/kg, 0.4 mg/kg, 0.8 mg/kg, 1.6 mg/kg • Tracheal Nebulization pirfenidone solution group: 0.9 mg/kg (reference dose from M.W. Surber et al., ATS POSTER, 2014)
On D29, all animals were euthanized for dissection. During the necropsy, the lungs, trachea, and bronchi were examined for abnormalities. Left lung tissue was preserved at below -60°C for hydroxyproline content detection, and right lung tissue was prepared for pathological sectioning. Hematoxylin and eosin (HE) staining and Masson staining were performed for pathological morphological observations and fibrosis evaluation.
All groups were compared to the model group using statistical analysis via Kruskal-Wallis test. The results are indicated as follows: • *P < 0.05: statistically significant difference • **P < 0.01: highly significant difference • ***P < 0.001: extremely significant difference • ****P < 0.0001: extremely highly significant difference

O=C(O[C@@H]1Cc2c(O)cc(O)cc2O[C@@H]1c1cc(O)c(O)c(O)c1)c1cc(O)c(O)c(O)c1 [EGCG, (-)-Epigallocatechin gallate]
hydroxyproline content in rat lungs, difference from the model group (inhalation 0.05 (P < 0.05), 0.4 (P < 0.0001), 0.8 and 1.6 mg/kg (P < 0.001)): significantly reduced
hydroxyproline content in rat lungs, difference from the model group (oral administration 30 mg/kg, 60 mg/kg): not statistically significant
Hydroxyproline Content (Inh 0.05mg/kg once daily D10 to D28): 0.528 ± 0.038 µg/µL
Hydroxyproline Content (Inh 0.4mg/kg once daily D10 to D28): 0.433 ± 0.023 µg/µL
Hydroxyproline Content (Inh 0.8mg/kg once daily D10 to D28): 0.485 ± 0.027 µg/µL
Hydroxyproline Content (Inh 1.6 mg/kg once daily D10 to D28): 0.465 ± 0.028 µg/µL
Hydroxyproline Content (PO 30mg/kg once daily D10 to D28): 0.608 ± 0.012 µg/µL
Hydroxyproline Content (PO 60mg/kg once daily D10 to D28): 0.546 ± 0.026 µg/µL
